The target in the assay is T1, EphA2 (Homo sapiens, UniProt P29317).
T1 construct: Methods: biotinylated extracellular domain (ECD)
The experiment in a line: SPR; also receptor activation in cells. The assay is classed as binding. In general terms: Surface plasmon resonance follows binding to a sensor surface in real time, without labels.

As usually defined, the Kd is the free concentration of one partner at which half of the binding sites on the other are occupied at equilibrium, for simple one-to-one binding. A higher Kd goes with weaker binding.

T1 sequence (P29317 28-206 limits assumed): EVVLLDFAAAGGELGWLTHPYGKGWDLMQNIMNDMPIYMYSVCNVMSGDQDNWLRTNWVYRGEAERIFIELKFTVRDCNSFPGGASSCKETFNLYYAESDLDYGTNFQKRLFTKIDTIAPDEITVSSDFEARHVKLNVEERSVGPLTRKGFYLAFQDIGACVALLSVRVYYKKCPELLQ

Molecule `COc1cc2nc(N3CCN(C(=O)C4COc5ccccc5O4)CC3)nc(N)c2cc1OC` (stereo not shown) [compound 11, doxazosin] displayed a Kd of 47.6 µM.

The values are drawn from PMC3419725, “A Small Molecule Agonist of EphA2 Receptor Tyrosine Kinase Inhibits Tumor Cell Migration In Vitro and Prostate Cancer Metastasis In Vivo” (PLoS ONE, 2012).
